Test results reported in patent US5110925A, “Pyridazinone derivatives” (Nippon Soda Co., Ltd., priority 1988, dated 1992).
≈ marks a conversion by molar mass, not a printed value. Where two headings read alike, the source gives them in different places.

Legend:
PDE-II = target: T1, PDE-II (Cavia porcellus, UniProt A0A286XUV5); assay: Inhibition of Phosphodiesterase PDE-II; type: biochemical, guinea pig (left ventricular muscles); settings: 1 mM 3H-cAMP substrate
T1 construct: different forms of cyclic nucleotide phosphodiesterase from guinea pig left ventricular muscles; from tissue; host or cells: guinea pig left ventricular muscle, DEAE-cellulose fraction
T1 sequence (A0A286XUV5 22-936): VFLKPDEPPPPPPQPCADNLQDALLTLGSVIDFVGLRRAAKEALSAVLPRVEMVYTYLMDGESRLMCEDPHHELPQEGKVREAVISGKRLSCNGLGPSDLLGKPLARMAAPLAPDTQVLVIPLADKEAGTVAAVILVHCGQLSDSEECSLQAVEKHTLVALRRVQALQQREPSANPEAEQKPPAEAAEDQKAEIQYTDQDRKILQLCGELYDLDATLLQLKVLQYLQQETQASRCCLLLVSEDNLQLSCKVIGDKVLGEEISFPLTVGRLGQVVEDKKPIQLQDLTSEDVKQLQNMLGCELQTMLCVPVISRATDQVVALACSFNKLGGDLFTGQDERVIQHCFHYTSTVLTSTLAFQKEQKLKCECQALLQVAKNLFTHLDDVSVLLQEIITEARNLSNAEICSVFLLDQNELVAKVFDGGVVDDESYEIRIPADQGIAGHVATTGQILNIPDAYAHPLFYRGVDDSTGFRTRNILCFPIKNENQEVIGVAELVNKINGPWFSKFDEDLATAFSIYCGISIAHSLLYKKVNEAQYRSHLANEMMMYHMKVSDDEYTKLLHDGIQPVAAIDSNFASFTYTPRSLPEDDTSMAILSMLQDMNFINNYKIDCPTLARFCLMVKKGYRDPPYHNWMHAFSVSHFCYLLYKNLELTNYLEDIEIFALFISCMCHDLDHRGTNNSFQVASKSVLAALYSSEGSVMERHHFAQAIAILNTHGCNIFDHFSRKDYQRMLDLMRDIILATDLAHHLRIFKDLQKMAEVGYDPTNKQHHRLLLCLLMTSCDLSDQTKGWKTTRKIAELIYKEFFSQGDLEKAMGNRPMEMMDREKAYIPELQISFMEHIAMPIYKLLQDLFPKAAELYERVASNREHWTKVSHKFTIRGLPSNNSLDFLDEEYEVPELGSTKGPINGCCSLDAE
Excerpt: (§1) The preparation of different forms of cyclic nucleotide phosphodiesterase from guinea pig left ventricular muscles was done by following the procedure of Weishaar, et al. (R. Weishaar, et al., Biochemical Pharmacology, 35, 787-800, 1986) with the minor modified method of Thompson, et al. (W. J. Thompson, et al., Advances in Cyclic Nucleotide Research, 10, 69-92, 1979). Briefly, the three active forms of phosphodiesterase (PDE-I, PDE-II, PDE-III) present in the ventricular muscles were discretely eluted from a DEAE-cellulose column (Whatman, DE-52, .phi. 2.5×20 cm) using a continuous 70-800 mM sodium acetate gradient.
(§2) The phosphodiesterase activity was assayed by minor modifications of the method described by Furutani et al. (Y. Furutani, et al., Journal of Antibiotics, 28, 558-560, 1975). Briefly, 1 mM ^3 H-cAMP was hydrolyzed by the phosphodiesterase and the unhydrolyzed ^3 H-cAMP which was separated from the formed 5'-AMP by a dry alumina (Merck, activity 1, neutral) was counted by a liquid scintillation counter.
(§3) The concentrations causing a 50% inhibition of the phosphodiesterase activity (IC50) were calculated from the concentration-inhibition curves.

Anesthetized Dogs = assay: Cardiotonic Action: Anesthetized Dogs; type: in vivo, dog (adult mongrel); settings: for ED50: Canis lupus familiaris, iv, read-out: LVdp/dtmax ED50; for % Changes in Heart rate / % Changes in Blood pressure: i.v.; for % Changes in Blood pressure: femoral arterial pressure
Experimental: Adult mongrel dogs of either sex weighing 8 to 15 kg were used.
The animals were anesthetized with sodium pentobarbital (30 mg/kg, i.v.) and maintained by an intravenous infusion of the anesthetic at a rate of 4 mg/kg per hour.
A cuffed endotracheal tube was inserted and an artificial respirator installed. The animals were ventilated with room air in a tidal volume of 20 ml/kg at a rate of 20 brearhs per minute.
Cannulae were inserted into the femoral vein for a falling drop of a physiological saline or for an infusion of the anesthetic, and into the femoral artery for measuring arterial blood pressure with a pressure transducer. Heart rate was recorded with a heart rate counter triggered by the R wave of the electrocardiogram (ECG).
ECG in standard lead II was monitored with a bioelectric amplifier.
Left ventricular pressure was measured with a catheter tip pressure transducer inserted via the right carotid artery into the left ventricle. Left ventricular dp/dtmax was obtained by an electric differentiator.
The compounds were injected through the cannula in the femoral vein at a dose of 0.001-0.3 mg/0.1 ml/kg.

PDE-III = target: T2, PDE-III (Cavia porcellus, UniProt H0VIU9); assay: Inhibition of Phosphodiesterase PDE-III; type: biochemical, guinea pig (left ventricular muscles)
T2 construct: different forms of cyclic nucleotide phosphodiesterase from guinea pig left ventricular muscles; from tissue; host or cells: guinea pig left ventricular muscle, DEAE-cellulose fraction
T2 sequence (H0VIU9 1-1132): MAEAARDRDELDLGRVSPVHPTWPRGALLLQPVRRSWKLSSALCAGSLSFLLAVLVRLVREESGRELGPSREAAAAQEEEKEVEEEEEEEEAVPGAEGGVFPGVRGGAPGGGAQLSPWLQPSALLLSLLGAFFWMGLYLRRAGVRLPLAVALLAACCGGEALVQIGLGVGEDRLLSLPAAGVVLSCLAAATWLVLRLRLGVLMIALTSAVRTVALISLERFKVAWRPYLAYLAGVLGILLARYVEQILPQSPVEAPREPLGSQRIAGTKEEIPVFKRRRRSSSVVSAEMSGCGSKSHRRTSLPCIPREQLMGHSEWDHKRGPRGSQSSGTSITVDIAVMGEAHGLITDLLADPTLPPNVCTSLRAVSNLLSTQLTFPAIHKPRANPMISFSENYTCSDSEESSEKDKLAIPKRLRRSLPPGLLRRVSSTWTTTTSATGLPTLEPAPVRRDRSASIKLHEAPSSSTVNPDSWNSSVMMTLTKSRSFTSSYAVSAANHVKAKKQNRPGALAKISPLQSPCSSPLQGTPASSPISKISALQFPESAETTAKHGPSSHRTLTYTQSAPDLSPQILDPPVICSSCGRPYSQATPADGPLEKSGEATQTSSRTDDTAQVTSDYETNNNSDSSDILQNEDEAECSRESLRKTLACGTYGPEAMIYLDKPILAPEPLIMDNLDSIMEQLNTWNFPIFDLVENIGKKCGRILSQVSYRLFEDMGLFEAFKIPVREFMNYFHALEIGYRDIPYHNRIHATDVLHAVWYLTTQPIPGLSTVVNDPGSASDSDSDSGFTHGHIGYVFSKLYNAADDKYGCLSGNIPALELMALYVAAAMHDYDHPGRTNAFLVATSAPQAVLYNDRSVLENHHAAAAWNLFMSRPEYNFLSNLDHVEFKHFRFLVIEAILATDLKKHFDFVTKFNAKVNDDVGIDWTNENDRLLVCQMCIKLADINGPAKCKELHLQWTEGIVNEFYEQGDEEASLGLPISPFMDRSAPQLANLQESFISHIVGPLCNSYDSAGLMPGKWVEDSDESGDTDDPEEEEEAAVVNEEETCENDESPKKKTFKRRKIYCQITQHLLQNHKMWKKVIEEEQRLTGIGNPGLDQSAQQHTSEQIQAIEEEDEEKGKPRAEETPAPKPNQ
Excerpt: as §1, §2, §3

PDE-I = assay: Inhibition of Phosphodiesterase PDE-I; type: biochemical, guinea pig (left ventricular muscles); settings: 1 mM 3H-cAMP substrate
Excerpt: as §1, §2, §3

guinea pig left atria = assay: Cardiotonic Action: Electrically Stimulating Isolated Guinea Pig Left Atria; parameters: species or system guinea pig (male Hartley); settings: Cavia porcellus, read-out: contractility of guinea pig left atria EC50
Experimental: Male Hartley guinea pigs weighing 350-500 g were used.
The hearts were excised from the animals. The left atria were dissected from the hearts and mounted in an organ bath.
The atria were stimulated by square wave pulses of 3 msec duration and a voltage ranging from 1.2-fold to 1.5-fold of the threshold at a frequency of 60/min with an electric stimulator.
Resting tension was adjusted to 0.5 g and contraction was recorded on the Polygraph Systems with a force-displacement transducer.
All preparations were allowed to equilibrate with the bath medium for 90 to 120 min.

mice = assay: Acute Toxicity in mice, oral single dose; type: in vivo, mouse (male); settings: male mice, 300 mg/kg, p.o., 7 days observation
Excerpt: The acute toxicity of the test compounds was studied in male mice after oral administration of a single dose.

[1] = dose producing a 50% increase in LVdp/dtmax, anesthetized dogs
[2] = 1 mM 3H-cAMP substrate, read-out: phosphodiesterase inhibition IC50 PDE-III
[3] = concentration causing a 50% increase in contractility, cumulative addition, 30° C.

SMILES | IC50 (PDE-II) | ED50 (Anesthetized Dogs; [1]) | % Changes in Heart rate (Anesthetized Dogs; anesthetized dogs) | % Changes in Blood pressure (Anesthetized Dogs; anesthetized dogs) | IC50 (PDE-III; [2]) | IC50 (PDE-I) | EC50 (guinea pig left atria; [3]) | mortality (number of dead animals/number of treated animals) (mice) | EC50 (guinea pig left atria) | ED50 (Anesthetized Dogs) | IC50 (PDE-III)
O=C1C=C(Nc2ccc3c(c2)OCC2CC(=O)NN=C32)CC1 (stereo not shown) [Compound 24, 8-(3-oxo-1-cyclopentenylamino)-3,4,4a,5-tetrahydro-2H-(1)benzopyrano(4,3-c)-pyridazinon-3-one] | 100 µM | 0.022 mg/kg | 4% | -7% | 4.1 µM | > 100 µM |  |  |  |  | 
O=C1CCC(c2ccc(-n3ccnc3)cc2)=NN1 [CI-914, reference compound] |  | 0.095 mg/kg | 9% | -10% | 5.7 µM | > 1000 µM | 1.8 µg/mL (≈ 7.49 µM) | 2/3 |  |  | 
O=C1C=C(Nc2ccc(C3=NNC(=O)CC3)cc2)CCC1 [Compound 3] | 180 µM | 0.009 mg/kg | 2% | -4% | 0.47 µM | 210 µM | 0.23 µg/mL (≈ 0.812 µM) | 0/3 |  |  | 
CC1=C(Nc2ccc3c(c2)OCC2CC(=O)NN=C32)CCC1=O (stereo not shown) [Compound 26] | 100 µM | 0.03 mg/kg | 8% | -6% | 2.3 µM | > 1000 µM |  |  |  |  | 
CC1(C)CC(=O)C=C(Nc2ccc(C3=NNC(=O)CC3)cc2)C1 [Compound 1] | 250 µM | 0.043 mg/kg | 5% | -1% | 1.2 µM | 900 µM | 0.23 µg/mL (≈ 0.739 µM) | 0/3 |  |  | 
CC1=C(Nc2ccc(C3=NNC(=O)CC3)cc2)CCC1=O [Compound 4, 4,5-Dihydro-6-(4-((2-methyl-3-oxo-1-cyclopentenyl)-amino)phenyl)-3(2H)-pyridazinone] | 330 µM | 0.012 mg/kg | 5% | -2% | 2 µM | 610 µM | 0.24 µg/mL (≈ 0.847 µM) | 1/3 |  |  | 
Cc1[nH]c(=O)c(C#N)cc1-c1ccncc1 [Milrinone, milrinone, reference compound] | 142 µM |  | 6% | -6% |  | 151 µM |  | 3/3 | 0.43 µg/mL (≈ 2.04 µM) | 0.023 mg/kg | 2.8 µM
CC1CC(=O)NN=C1c1ccc(NC2=CC(=O)CC2)cc1 (stereo not shown) [Compound 14, 4,5-Dihydro-6-(4-((3-oxo-1-cyclopentenyl)amino)phenyl)-5-methyl-3(2H)-pyridazinone] | 260 µM | 0.008 mg/kg | 13% | -11% | 0.88 µM | 310 µM | 0.12 µg/mL (≈ 0.424 µM) |  |  |  | 
CC1=C(Nc2ccc(C3=NNC(=O)CC3C)cc2)CCC1=O (stereo not shown) [Compound 15, 4,5-Dihydro-6-(4-((2-methyl-3-oxo-1-cyclopentenyl)amino)phenyl)-5-methyl-3(2H)-pyridazinone] | 940 µM | 0.012 mg/kg | 19% | -18% | 0.59 µM | > 1000 µM | 0.054 µg/mL (≈ 0.182 µM) |  |  |  | 
O=C1C=C(Nc2ccc3c(c2)CCC2CC(=O)NN=C32)CC1 (stereo not shown) [Compound 35] | 49 µM | 0.023 mg/kg | 3% | -4% | 1.6 µM | > 100 µM |  |  |  |  | 
O=C1C=C(Nc2ccc(C3=NNC(=O)CC3)cc2)CC1 [Compound 2, 4,5-Dihydro-6-((4-(3-oxo-1-cyclopentenyl)amino)phenyl)-3(2H)-pyridazinone] | 235 µM | 0.006 mg/kg | 6% | -2% | 1.2 µM | 1000 µM | 0.11 µg/mL (≈ 0.408 µM) | 0/3 |  |  | 
